Tests used:
[1] = system: cocklebur; assay: Test B pre/postemergence cocklebur; assay type: in vivo, Xanthium strumarium; conditions: for Cocklebur plant response rating: scale of 0 to 10 where 0 is no effect and 10 is complete control
How it was run: (§1)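 Test chemicals in a non-phytotoxic solvent mixture with surfactant were sprayed preemergence onto planted seeds and postemergence onto plants 2 to 18 cm tall (1- to 4-leaf stage). After twelve to sixteen days in a greenhouse, injury was visually rated against untreated controls from 0 (no effect) to 10 (complete control).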

[2] = system: smallflower flatsedge; assay: Test B flood test smallflower flatsedge; assay type: in vivo, Cyperus difformis
How it was run: (§2)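 Flood test on plants grown to the 2-leaf stage; treated plants kept in greenhouse twelve to sixteen days, then visually rated against controls on a 0 (no effect) to 10 (complete control) scale.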

[3] = system: blackgrass; assay: Test B pre/postemergence blackgrass; assay type: in vivo, Alopecurus myosuroides; conditions: for Blackgrass plant response rating: scale of 0 to 10 where 0 is no effect and 10 is complete control
How it was run: as §1

[4] = system: velvetleaf; assay: Test B pre/postemergence velvetleaf; assay type: in vivo, Abutilon theophrasti; conditions: for Velvetleaf plant response rating: scale of 0 to 10 where 0 is no effect and 10 is complete control
How it was run: as §1

[5] = system: giant foxtail; assay: Test B pre/postemergence giant foxtail; assay type: in vivo, Setaria faberii; conditions: for Giant foxtail plant response rating: scale of 0 to 10 where 0 is no effect and 10 is complete control
How it was run: as §1

[6] = system: purple nutsedge; assay: Test B pre/postemergence purple nutsedge; assay type: in vivo, Cyperus rotundus; conditions: for Nutsedge plant response rating: scale of 0 to 10 where 0 is no effect and 10 is complete control
How it was run: as §1

[7] = system: rice; assay: Test B flood test rice; assay type: in vivo, Oryza sativa
How it was run: as §2

[8] = system: rape; assay: Test B pre/postemergence rape; assay type: in vivo, Brassica napus; conditions: for Rape plant response rating: scale of 0 to 10 where 0 is no effect and 10 is complete control
How it was run: as §1

[9] = system: pigweed; assay: Test B pre/postemergence pigweed; assay type: in vivo, Amaranthus retroflexus; conditions: for Redroot pigweed plant response rating: scale of 0 to 10 where 0 is no effect and 10 is complete control
How it was run: as §1

[10] = system: morningglory; assay: Test B pre/postemergence morningglory; assay type: in vivo, Ipomoea hederacea; conditions: for Morningglory plant response rating: scale of 0 to 10 where 0 is no effect and 10 is complete control
How it was run: as §1

[11] = system: sugar beet; assay: Test B pre/postemergence sugar beet; assay type: in vivo, Beta vulgaris; conditions: for Sugarbeets plant response rating: scale of 0 to 10 where 0 is no effect and 10 is complete control
How it was run: as §1

[12] = system: corn; assay: Test B pre/postemergence corn; assay type: in vivo, Zea mays; conditions: for Corn plant response rating: scale of 0 to 10 where 0 is no effect and 10 is complete control
How it was run: as §1

[13] = system: crabgrass; assay: Test B pre/postemergence crabgrass; assay type: in vivo, Digitaria sanguinalis; conditions: for Crabgrass plant response rating: scale of 0 to 10 where 0 is no effect and 10 is complete control
How it was run: as §1

[14] = system: soybean; assay: Test B pre/postemergence soybean; assay type: in vivo, Glycine max; conditions: for Soybean plant response rating: scale of 0 to 10 where 0 is no effect and 10 is complete control
How it was run: as §1

[15] = system: wheat; assay: Test B pre/postemergence wheat; assay type: in vivo, Triticum aestivum; conditions: for Wheat plant response rating: scale of 0 to 10 where 0 is no effect and 10 is complete control
How it was run: as §1

[16] = system: duck salad; assay: Test B flood test duck salad; assay type: in vivo, Heteranthera limosa
How it was run: as §2

[17] = Postemergence, Rate 125 g/ha, scale 0 to 10, 0 is no effect, 10 is complete control
[18] = Postemergence, Rate 250 g/ha, scale 0 to 10, 0 is no effect, 10 is complete control
[19] = Preemergence, Rate 62 g/ha, scale 0 to 10 (0 no effect, 10 complete control)
[20] = Rate 500 g/ha, Postemergence, scale 0 to 10, 0 no effect, 10 complete control
[21] = Rate 62 g/ha, flood test species, Pre-emergence, visual evaluation after twelve to sixteen days
[22] = Rate 125 g/ha, under heading Pre-emergence, flood test species, visual evaluation after twelve to sixteen days
[23] = Rate 250 g/ha, Pre-emergence, flood-test species, scale 0 to 10, 0 is no effect, 10 is complete control
[24] = Rate 500 g/ha, Pre-emergence, flood test species, scale 0 to 10 (0 no effect, 10 complete control)

For `CCOc1nc(C(F)(F)F)c(Cn2c(=O)on(C(=O)N(c3ccc(F)cc3)C(C)C)c2=O)s1` [Compound 381], the “Plant response rating, Cocklebur” value [1, 17] was 0, the “Plant response rating, Cocklebur” value [1, 18] was 0 and the “Plant response rating, Cocklebur” value [1, 19] was 0. For the same compound, the “Cocklebur plant response rating (0 to 10 scale)” value ([1]; Preemergence, Rate 125 g/ha) was 0, the “Cocklebur plant response rating” value ([1]; Preemergence, Rate 250 g/ha) was 0 and the “Cocklebur plant response rating” value ([1]; Preemergence, Rate 500 g/ha) was 0. The “Cocklebur plant response rating” value ([1]; Rate 62 g/ha, Postemergence) was 0, the “Plant response rating, Cocklebur” value [1, 20] was 0 and the “Plant response rating, S. Flatsedge (0 to 10 scale, 0 is no effect, 10 is complete control)” value [2, 21] was 0. The “S. Flatsedge plant response rating (0 to 10 scale, 0 is no effect, 10 is complete control)” value [2, 22] was 0, the “S. Flatsedge plant response rating” value [2, 23] was 0 and the “S. Flatsedge plant response rating” value [2, 24] was 0. The “Plant response rating, Blackgrass” value [3, 17] was 0, the “Plant response rating, Blackgrass” value [3, 18] was 0 and the “Plant response rating, Blackgrass” value [3, 19] was 0. The “Blackgrass plant response rating (0 to 10 scale)” value ([3]; Preemergence, Rate 125 g/ha) was 0, the “Blackgrass plant response rating” value ([3]; Preemergence, Rate 250 g/ha) was 0 and the “Blackgrass plant response rating” value ([3]; Preemergence, Rate 500 g/ha) was 2. For the same compound, the “Blackgrass plant response rating” value ([3]; Rate 62 g/ha, Postemergence) was 0, the “Plant response rating, Blackgrass” value [3, 20] was 0 and the “Plant response rating, Velvetleaf” value [4, 17] was 0. For the same compound, the “Plant response rating, Velvetleaf” value [4, 18] was 0, the “Plant response rating, Velvetleaf” value [4, 19] was 0 and the “Velvetleaf plant response rating (0 to 10 scale)” value ([4]; Preemergence, Rate 125 g/ha) was 0. For the same compound, the “Velvetleaf plant response rating” value ([4]; Preemergence, Rate 250 g/ha) was 0, the “Velvetleaf plant response rating” value ([4]; Preemergence, Rate 500 g/ha) was 0 and the “Velvetleaf plant response rating” value ([4]; Rate 62 g/ha, Postemergence) was 0. For the same compound, the “Plant response rating, Velvetleaf” value [4, 20] was 0, the “Plant response rating, Giant foxtail” value [5, 17] was 0 and the “Plant response rating, Giant foxtail” value [5, 18] was 0. The “Plant response rating, Giant foxtail” value [5, 19] was 0, the “Giant foxtail plant response rating (0 to 10 scale)” value ([5]; Preemergence, Rate 125 g/ha) was 0 and the “Giant foxtail plant response rating” value ([5]; Preemergence, Rate 250 g/ha) was 5. The “Giant foxtail plant response rating” value ([5]; Preemergence, Rate 500 g/ha) was 9, the “Giant foxtail plant response rating” value ([5]; Rate 62 g/ha, Postemergence) was 0 and the “Plant response rating, Giant foxtail” value [5, 20] was 0. The “Plant response rating, Nutsedge” value [6, 17] was 0, the “Plant response rating, Nutsedge” value [6, 18] was 0 and the “Plant response rating, Nutsedge” value [6, 19] was 0. The “Nutsedge plant response rating (0 to 10 scale)” value ([6]; Preemergence, Rate 125 g/ha) was 0, the “Nutsedge plant response rating” value ([6]; Preemergence, Rate 250 g/ha) was 0 and the “Nutsedge plant response rating” value ([6]; Preemergence, Rate 500 g/ha) was 0. For the same compound, the “Nutsedge plant response rating” value ([6]; Rate 62 g/ha, Postemergence) was 0, the “Plant response rating, Nutsedge” value [6, 20] was 0 and the “Plant response rating, Rice (0 to 10 scale, 0 is no effect, 10 is complete control)” value [7, 21] was 0. The “Rice plant response rating (0 to 10 scale, 0 is no effect, 10 is complete control)” value [7, 22] was 0, the “Rice plant response rating” value [7, 23] was 0 and the “Rice plant response rating” value [7, 24] was 0. The “Plant response rating, Rape” value [8, 17] was 0, the “Plant response rating, Rape” value [8, 18] was 0 and the “Plant response rating, Rape” value [8, 19] was 0. For the same compound, the “Rape plant response rating (0 to 10 scale)” value ([8]; Preemergence, Rate 125 g/ha) was 0, the “Rape plant response rating” value ([8]; Preemergence, Rate 250 g/ha) was 0 and the “Rape plant response rating” value ([8]; Preemergence, Rate 500 g/ha) was 0. For the same compound, the “Rape plant response rating” value ([8]; Rate 62 g/ha, Postemergence) was 0, the “Plant response rating, Rape” value [8, 20] was 6 and the “Plant response rating, Redroot pigweed” value [9, 17] was 0. For the same compound, the “Plant response rating, Redroot pigweed” value [9, 18] was 0, the “Plant response rating, Redroot pigweed” value [9, 19] was 0 and the “Redroot pigweed plant response rating (0 to 10 scale)” value ([9]; Preemergence, Rate 125 g/ha) was 0. For the same compound, the “Redroot pigweed plant response rating” value ([9]; Preemergence, Rate 250 g/ha) was 0, the “Redroot pigweed plant response rating” value ([9]; Preemergence, Rate 500 g/ha) was 0 and the “Redroot pigweed plant response rating” value ([9]; Rate 62 g/ha, Postemergence) was 0. The “Plant response rating, Redroot pigweed” value [9, 20] was 2, the “Plant response rating, Morningglory” value [10, 17] was 2 and the “Plant response rating, Morningglory” value [10, 18] was 2. The “Plant response rating, Morningglory” value [10, 19] was 0, the “Morningglory plant response rating (0 to 10 scale)” value ([10]; Preemergence, Rate 125 g/ha) was 0 and the “Morningglory plant response rating” value ([10]; Preemergence, Rate 250 g/ha) was 0. The “Morningglory plant response rating” value ([10]; Preemergence, Rate 500 g/ha) was 0, the “Morningglory plant response rating” value ([10]; Rate 62 g/ha, Postemergence) was 2 and the “Plant response rating, Morningglory” value [10, 20] was 7. The “Plant response rating, Sugarbeets” value [11, 17] was 0, the “Plant response rating, Sugarbeets” value [11, 18] was 0 and the “Plant response rating, Sugarbeets” value [11, 19] was 0. For the same compound, the “Sugarbeets plant response rating (0 to 10 scale)” value ([11]; Preemergence, Rate 125 g/ha) was 0, the “Sugarbeets plant response rating” value ([11]; Preemergence, Rate 250 g/ha) was 0 and the “Sugarbeets plant response rating” value ([11]; Preemergence, Rate 500 g/ha) was 0. The “Sugarbeets plant response rating” value ([11]; Rate 62 g/ha, Postemergence) was 0, the “Plant response rating, Sugarbeets” value [11, 20] was 0 and the “Plant response rating, Corn” value [12, 17] was 0. For the same compound, the “Plant response rating, Corn” value [12, 18] was 0, the “Plant response rating, Corn” value [12, 19] was 0 and the “Corn plant response rating (0 to 10 scale)” value ([12]; Preemergence, Rate 125 g/ha) was 0. The “Corn plant response rating” value ([12]; Preemergence, Rate 250 g/ha) was 0, the “Corn plant response rating” value ([12]; Preemergence, Rate 500 g/ha) was 2 and the “Corn plant response rating” value ([12]; Rate 62 g/ha, Postemergence) was 0. For the same compound, the “Plant response rating, Corn” value [12, 20] was 0, the “Plant response rating, Crabgrass” value [13, 17] was 0 and the “Plant response rating, Crabgrass” value [13, 18] was 0. The “Plant response rating, Crabgrass” value [13, 19] was 0, the “Crabgrass plant response rating (0 to 10 scale)” value ([13]; Preemergence, Rate 125 g/ha) was 0 and the “Crabgrass plant response rating” value ([13]; Preemergence, Rate 250 g/ha) was 3. For the same compound, the “Crabgrass plant response rating” value ([13]; Preemergence, Rate 500 g/ha) was 9, the “Crabgrass plant response rating” value ([13]; Rate 62 g/ha, Postemergence) was 0 and the “Plant response rating, Crabgrass” value [13, 20] was 0. The “Plant response rating, Soybean” value [14, 17] was 2, the “Plant response rating, Soybean” value [14, 18] was 2 and the “Plant response rating, Soybean” value [14, 19] was 0. The “Soybean plant response rating (0 to 10 scale)” value ([14]; Preemergence, Rate 125 g/ha) was 0, the “Soybean plant response rating” value ([14]; Preemergence, Rate 250 g/ha) was 0 and the “Soybean plant response rating” value ([14]; Preemergence, Rate 500 g/ha) was 0. The “Soybean plant response rating” value ([14]; Rate 62 g/ha, Postemergence) was 1, the “Plant response rating, Soybean” value [14, 20] was 2 and the “Plant response rating, Wheat” value [15, 17] was 0. The “Plant response rating, Wheat” value [15, 18] was 0, the “Plant response rating, Wheat” value [15, 19] was 0 and the “Wheat plant response rating (0 to 10 scale)” value ([15]; Preemergence, Rate 125 g/ha) was 0. For the same compound, the “Wheat plant response rating” value ([15]; Preemergence, Rate 250 g/ha) was 0, the “Wheat plant response rating” value ([15]; Preemergence, Rate 500 g/ha) was 0 and the “Wheat plant response rating” value ([15]; Rate 62 g/ha, Postemergence) was 0. For the same compound, the “Plant response rating, Wheat” value [15, 20] was 0, the “Plant response rating, Ducksalad (0 to 10 scale, 0 is no effect, 10 is complete control)” value [16, 21] was 0 and the “Ducksalad plant response rating (0 to 10 scale, 0 is no effect, 10 is complete control)” value [16, 22] was 0. For the same compound, the “Ducksalad plant response rating” value [16, 23] was 0 and the “Ducksalad plant response rating” value [16, 24] was 0.

Source: patent US6737383B1, “Herbicidal oxadiazolidines” (priority 1999, dated 2004)
